Measured values published in patent EP0555116B1, “Compositions based on antiseptics and their applications” (HUTCHINSON, priority 1992, dated 1993).

Tested on: virus HBV
Assay: In vivo protection test in ducks (I.V.), inoculum 2.10^7 vge/canard
Conditions: Bardac® 0,1 %, voie I.V.
Text: II - Essais in vivo chez le canard (voie I.V.).
• Bardac® 0,02 % (dose 100 fois inférieure à celle qui est efficace in vitro pour le Bardac® seul) - CHG 0,025 % contre un inoculum à 2.10^7 vge/canard protège 3/3 canards (figure 2). • Bardac® 0,1 % (dose 5 fois plus forte que dans une composition conforme à l'invention pour obtenir une protection équivalente) contre un inoculum à 2.10^7 vge/canard (vge = viral genoma equivalent) protège 4/4 canards (figure 3).
La figure 1 correspond à un témoin d'infection : 4/4 canards inoculés avec 2.10^7 vge développent une virémie dont le pic se situe entre 5 et 10 jours.

In the case of `CCCCCCCCCC[N+](C)(C)CCCCCCCCCC` [Bardac®, chlorure de didécyldiméthylammonium], the “canards protégés” value was 4/4.
